The values that follow come from ChEMBL document CHEMBL3352341, “Design, synthesis and biological characterization of thiazolidin-4-one derivatives as promising inhibitors of Toxoplasma gondii” (Eur J Med Chem, 2014).

The structures appear in SMILES notation. Active and inactive are the calls of the source. No rule for the calls is given here.

The test system of data set [1] is Toxoplasma gondii. Kind of data set: Antiparasitic activity against Toxoplasma gondii infected in human foreskin fibroblasts assessed as inhibition of replication measured as decrease in the number of tachyzoites in vacuole at 10 uM after 24 hrs by fluorescence assay. In kind it is functional, organism-based.
The nature of data set [2]: Cytotoxicity against human foreskin fibroblasts after 5 days by colorimetric assay. The following applies: human foreskin fibroblasts (HFF cells), read-out: TD50. In kind it is cell-based.
A short description of data set [3]: Therapeutic index, ratio of TD50 for human foreskin fibroblasts to IC50 for Toxoplasma gondii infected in human foreskin fibroblasts. The following applies: read-out: TI.
Data set [4] has as its system Toxoplasma gondii. Put plainly: Antiparasitic activity against Toxoplasma gondii infected in human foreskin fibroblasts assessed as tachyzoite growth inhibition after 5 days by colorimetric assay. In kind it is functional, organism-based. The following applies: 120 h.

For `C/C(=N/N=C1/SCC(=O)N1Cc1ccccc1)C1CCCCC1`, in data set [1], the inhibition result was “Active”. Also, the CC50 at 120 h in data set [2] is 60 µM. The selectivity ratio in data set [3] stood at 3. In data set [4], the concentration for half-maximal inhibition (IC50) was 24 µM and the 90% effect concentration (IC90) is 71 µM.
On to `O=C1CS/C(=N/N=C\c2cccnc2)N1Cc1ccccc1`, for which the inhibition result in data set [1] is “Active”. In data set [2], the CC50 at 120 h came to 239 µM. Moreover, in data set [3], the selectivity ratio came out at 2. Besides, in data set [4], the IC50 is 111 µM and the IC90 turned out to be 245 µM.
Consider `C/C(=N/N=C1\NC(=O)CS1)C1CCCCC1`, for which the inhibition entry in data set [1] is “Active”. The CC50 at 120 h in data set [2] was at least 320 µM. In data set [3], the selectivity ratio turned out to be 10. For the same compound, in data set [4], the IC50 was 55 µM and the concentration for an effect of 90% (IC90) came to 283 µM.
The corresponding values for `C/C(=N/N=C1\NC(=O)CS1)c1ccccc1` are “Active”, at least 320 µM, 5, 114 µM and 262 µM.
In the case of `CC/C(C)=N\N=C1\SCC(=O)N1Cc1ccccc1`, the inhibition result in data set [1] was “Active”. Also, the CC50 at 120 h in data set [2] was at least 320 µM. Moreover, the selectivity ratio in data set [3] is 6. Besides, in data set [4], the half-maximal inhibitory concentration (IC50) was 99 µM and the IC90 was 392 µM.
For `C/C(=N/N=C1/SCC(=O)N1Cc1ccccc1)c1cc2ccccc2oc1=O`, the inhibition result in data set [1] is “Active”. For the same compound, the CC50 at 120 h in data set [2] was at least 320 µM. Moreover, the IC50 in data set [4] was at least 320 µM.
As for `CC1CCCC/C1=N/N=C1\NC(=O)CS1` (configuration not stated), the inhibition result in data set [1] is “Active”. Moreover, the CC50 at 120 h in data set [2] is at least 320 µM. In data set [3], the selectivity ratio was 2. In data set [4], the concentration for half-maximal inhibition (IC50) amounted to 247 µM and the IC90 was 785 µM.
For `O=C1CS/C(=N/N=C\c2c[nH]c3ccccc23)N1Cc1ccccc1` the same measures were “Active”, 102 µM, 2, 52 µM and 177 µM.
The corresponding values for `C/C(=N\N=C1/NC(=O)CS1)c1ccncc1` are “Active”, at least 320 µM, 11, 53 µM and 401 µM.
For `C/C(=N/N=C1/SCC(=O)N1Cc1ccccc1)c1ccc2ccccc2c1` the same measures were “Active”, at least 320 µM, 5, 109 µM and 499 µM.
For the compound `C/C(=N/N=C1\NC(=O)CS1)c1cccnc1`, the inhibition entry in data set [1] is “Active”. The CC50 at 120 h in data set [2] was at least 320 µM. In addition, in data set [3], the selectivity ratio stood at 8. Further, in data set [4], the IC50 worked out at 74 µM and the IC90 worked out at 406 µM.
The corresponding values for `C/C(=N/N=C1/SCC(=O)N1Cc1ccccc1)c1ccccc1` are “Active”, at least 320 µM, 9, 61 µM and 294 µM.
For `CCCCCC/C(C)=N\N=C1\SCC(=O)N1Cc1ccccc1` the same measures were “Active”, 109 µM, 6, 20 µM and 88 µM.
For `C/C(=N/N=C1\NC(=O)CS1)c1cccs1` the same measures were “Active”, at least 320 µM, 9, 64 µM and 387 µM.
With `CC1CCC/C(=N/N=C2\NC(=O)CS2)C1` (configuration not stated), the inhibition entry in data set [1] was “Active”. Besides, the CC50 at 120 h in data set [2] worked out at 202 µM. Further, in data set [3], the selectivity ratio came out at 6. Moreover, in data set [4], the IC50 came out at 36 µM and the IC90 stood at 310 µM.
The corresponding values for `O=C1CS/C(=N/N=C\c2cccs2)N1` are “Active”, at least 320 µM, 4, 135 µM and 2680 µM.
Take `CC1CCC(=N/N=C2/SCC(=O)N2Cc2ccccc2)CC1` (configuration not stated): the inhibition entry in data set [1] was “Active”. Further, in data set [2], the CC50 at 120 h amounted to 286 µM. Also, the selectivity ratio in data set [3] is 3. Further, in data set [4], the IC50 is 88 µM and the IC90 came out at 242 µM.
For `COc1cc(Cc2cnc(N)nc2N)cc(OC)c1OC` [TRIMETHOPRIM] the same measures were “Active”, at least 320 µM, 43, 13 µM and 73 µM.
For `C/C(CC(C)C)=N/N=C1/SCC(=O)N1Cc1ccccc1` the same measures were “Active”, 220 µM, 10, 23 µM and 188 µM.
For `CC(C)(C)C1CCCC/C1=N/N=C1\NC(=O)CS1` (configuration not stated) the same measures were “Active”, at least 320 µM, 3, 218 µM and 693 µM.
For the compound `O=C1CS/C(=N/N=C\c2cccnc2)N1`, in data set [1], the inhibition result is “Active”. In data set [2], the CC50 at 120 h was at least 320 µM. Further, in data set [3], the selectivity ratio came to 11. Moreover, in data set [4], the half-inhibitory concentration (IC50) came out at 52 µM and the 90% effect concentration (IC90) was determined as 268 µM.
For `C=CCC/C(C)=N\N=C1\SCC(=O)N1Cc1ccccc1` the same measures were “Active”, at least 320 µM, 3, 207 µM and 885 µM.
As to `CC(C)=C/C(C)=N\N=C1/NC(=O)CS1`, in data set [1], the inhibition result is “Active”. In addition, the CC50 at 120 h in data set [2] was at least 320 µM. In data set [3], the selectivity ratio was determined as 6. In data set [4], the half-inhibitory concentration (IC50) is 97 µM and the IC90 is 316 µM.
For `CC(C)=N/N=C1/SCC(=O)N1Cc1ccccc1` the same measures were “Active”, at least 320 µM, 2, 232 µM and 636 µM.
For `C/C(=N/N=C1/SCC(=O)N1Cc1ccccc1)c1cccnc1` the same measures were “Active”, 147 µM, 3, 82 µM and 181 µM.
The corresponding values for `C/C(=N/N=C1\NC(=O)CS1)c1ccccn1` are “Active”, 16 µM, 6, 2.9 µM and 7 µM.
As for `O=C1CS/C(=N/N=C2CCCC2)N1Cc1ccccc1`, in data set [1], the inhibition entry was “Active”. Further, the CC50 at 120 h in data set [2] was at least 320 µM. Further, in data set [3], the selectivity ratio is 5. Moreover, in data set [4], the IC50 was determined as 105 µM and the IC90 stood at 330 µM.
For `C/C(=N/N=C1\NC(=O)CS1)c1ccc2ccccc2c1`, the inhibition entry in data set [1] is “Active”. In addition, the CC50 at 120 h in data set [2] was at least 320 µM. Further, the selectivity ratio in data set [3] worked out at 10. Moreover, in data set [4], the half-inhibitory concentration (IC50) worked out at 56 µM and the IC90 is 175 µM.
For `O=C1CSC(NN=C2CCCCCC2)=N1` the same measures were “Active”, at least 320 µM, 5, 111 µM and 387 µM.
For `C/C(=N/N=C1\NC(=O)CS1)c1ccco1`, the inhibition entry in data set [1] was “Active”. For the same compound, the CC50 at 120 h in data set [2] was at least 320 µM. For the same compound, the IC50 in data set [4] is at least 320 µM.
Regarding `CCCCC/C(C)=N\N=C1/NC(=O)CS1`, the inhibition entry in data set [1] was “Active”. For the same compound, the CC50 at 120 h in data set [2] stood at 320 µM. For the same compound, the selectivity ratio in data set [3] worked out at 3. In addition, in data set [4], the IC50 was determined as 110 µM and the IC90 is 686 µM.
For `O=C1CS/C(=N/N=C\c2ccncc2)N1Cc1ccccc1` the same measures were “Active”, 203 µM, 2, 118 µM and 304 µM.
In the case of `O=C1CS/C(=N/N=C2CCCCC2)N1Cc1ccccc1`, in data set [1], the inhibition entry was “Active”. For the same compound, the CC50 at 120 h in data set [2] is at least 320 µM. In addition, the selectivity ratio in data set [3] came out at 2. Besides, in data set [4], the half-inhibitory concentration (IC50) was determined as 255 µM and the IC90 came out at 662 µM.
The corresponding values for `O=C1CS/C(=N/N=C2CCCCCC2)N1Cc1ccccc1` are “Active”, at least 320 µM, 2, 255 µM and 1530 µM.
The corresponding values for `O=C1CS/C(=N/N=C\c2c[nH]c3ccccc23)N1` are “Active”, at least 320 µM, 3, 166 µM and 474 µM.
The corresponding values for `CC1CC/C(=N/N=C2/SCC(=O)N2Cc2ccccc2)C1` (configuration not stated) are “Active”, at least 320 µM, 3, 184 µM and 845 µM.
Consider `O=C1CS/C(=N/N=C\c2ccco2)N1Cc1ccccc1`, for which the inhibition entry in data set [1] is “Active”. For the same compound, in data set [2], the CC50 at 120 h is at least 320 µM. For the same compound, the selectivity ratio in data set [3] stood at 5. Also, in data set [4], the IC50 amounted to 111 µM and the 90% effect concentration (IC90) came to 396 µM.
For `CCC/C(C)=N\N=C1\SCC(=O)N1Cc1ccccc1` the same measures were “Active”, at least 320 µM, 12, 47 µM and 214 µM.
With `C/C(=N/N=C1/SCC(=O)N1Cc1ccccc1)c1ccccn1`, in data set [1], the inhibition result was “Active”. In addition, in data set [2], the CC50 at 120 h was at least 320 µM. Further, in data set [4], the concentration for half-maximal inhibition (IC50) was at least 320 µM.
With `O=C1CS/C(=N/N=C\c2ccc3c(c2)OCO3)N1`, the inhibition entry in data set [1] is “Active”. Besides, in data set [2], the CC50 at 120 h is at least 320 µM. Moreover, the IC50 in data set [4] is at least 320 µM.
